# Laboratory results published in US20120230970A1, “METHOD FOR TREATING PERVASIVE D[…]” (CUREMARK, LLC, priority 1999, published 2012).
# Experiments:
# [1] = system: autistic children; experiment: Fecal Chymotrypsin Test after secretin infusion in autistic children (Experiments 1 and 2); type: in vivo, human; settings: 6 Months Post-Secretin Administration
# Protocol: In this experiment, 16 children diagnosed as having autism were administered the following Fecal Chymotrypsin Test in accordance with an embodiment of the invention. First, approximately 2 grams of stool were collected from each child and placed in a sterile container (although it is to be understood that any quantity of stool may be collected, as 2 grams of stool is not a required amount). Each stool sample was then analyzed using, e.g., an enzymatic photospectrometry analysis as is known by those skilled in the art, to determine the level of fecal chymotrypsin in the stool. Although the enzymatic photospectrophotometry process is preferred, any suitable conventional method may be used for measuring the fecal chymotrypsin levels. The measured chymotrypsin levels of the 16 autistic children are illustrated in FIG. 13.
# After determining the chymotrypsin levels of the stools, each of these levels were compared with threshold chymotrypsin levels to determine if the child was likely to benefit from secretin administration. By way of example, with the fecal chymotrypsin tests of the stool samples being performed at 30° C., normal levels of chymotrypsin are deemed to lie above 8.4 U/gram, whereas pathologically abnormal levels are deemed to lie below 4.2 U/gram. In addition, chymotrypsin levels between 8.4 U/gram and 4.2 U/gram are considered equivocal, and further testing of the individual's fecal chymotrypsin levels over a period of time should be performed. […]
# The results of Experiment 1 are illustrated in FIGS. 1-14. For instance, approximately one week after the first secretin infusion, the fecal chymotrypsin level of each of the 16 autistic children was measured again. […]
# In this experiment, 37 autistic children with abnormal fecal chymotrypsin levels were administered secretin over the course of 6 months using the secretin infusion process described above. Their fecal chymotrypsin (FC) levels were measured weekly using the fecal chymotrypsin test described above.
# [2] = system: autistic children; experiment: CARS (Childhood Autism Rating Scale) test pre- and post-secretin administration (Experiment 1); type: in vivo, human; settings: 16 autistic children; 3 weeks post infusion vs pre-secretin
# Protocol: Upon determining that a given child was likely to benefit from secretin administration based on the results of the fecal chymotrypsin test, the child was administered a CARS (Childhood Autism Rating Scale) test prior to being scheduled for secretin infusion.
# For each of the 16 autistic children tested, a preferred secretin infusion process according to the present invention was performed involving the administering of 1 U/kg of body weight of Secretin-Ferring for a period of nine months at intervals of approximately 6 weeks. In addition, another CARS test was administered to each of the 16 autistic children 3 weeks post secretin administration to determine if their autism had changed post infusion.
# A preferred secretin infusion process includes the initial step of prepping an arm of the candidate child with an IV injection of saline. A test dose of 1 U of Secretin-Ferring is then administered to the child. Approximately one minute after, infusion, the child is examined for signs of allergic reaction including rash, increased heart rate, and increase of blood pressure. […] Subsequently, each child receives a 1 U/kg of body weight infusion of Secretin-Ferring approximately every 6 weeks for 9 months. It is to be understood that any commercially available form of secretin may be used. […]
# [3] = system: children diagnosed with Autism; settings: secretin given as diagnostic procedure during upper gastrointestinal endoscopy; Horvath et al. 1998; cited from earlier work
# [4] = of 37 children (pre-secretin 0)
substance,measurement,setting,value
secretin,# Autistic Children w/Equivocal FC levels,[1]; [4],2
same,# Autistic Children w/normal FC levels,[1]; [4],34
same,# Autistic Children w/Abnormal FC levels,[1]; of 37 children (pre-secretin 37),1
same,CARS component scores,[2],demonstrated improvement except for the fear component which increased
same,effect on symptoms associated with Autism,[3],ameliorating the symptoms associated with Autism
